Test results published in ChEMBL document CHEMBL5724796, “Tm Shift (DSF) assay results for EUbOPEN Chemogenomics Library” (2024).
Several values for one entry are separate records, joined by “and”; a condition that tells them apart may be missing. Equal entries are not always repeated.

Experiments:
Peregrin (Homo sapiens) = biological target: T1, Peregrin (Homo sapiens) (UniProt P55201); conditions: Compound concentration 20.0 uM
T1 sequence (whole entry): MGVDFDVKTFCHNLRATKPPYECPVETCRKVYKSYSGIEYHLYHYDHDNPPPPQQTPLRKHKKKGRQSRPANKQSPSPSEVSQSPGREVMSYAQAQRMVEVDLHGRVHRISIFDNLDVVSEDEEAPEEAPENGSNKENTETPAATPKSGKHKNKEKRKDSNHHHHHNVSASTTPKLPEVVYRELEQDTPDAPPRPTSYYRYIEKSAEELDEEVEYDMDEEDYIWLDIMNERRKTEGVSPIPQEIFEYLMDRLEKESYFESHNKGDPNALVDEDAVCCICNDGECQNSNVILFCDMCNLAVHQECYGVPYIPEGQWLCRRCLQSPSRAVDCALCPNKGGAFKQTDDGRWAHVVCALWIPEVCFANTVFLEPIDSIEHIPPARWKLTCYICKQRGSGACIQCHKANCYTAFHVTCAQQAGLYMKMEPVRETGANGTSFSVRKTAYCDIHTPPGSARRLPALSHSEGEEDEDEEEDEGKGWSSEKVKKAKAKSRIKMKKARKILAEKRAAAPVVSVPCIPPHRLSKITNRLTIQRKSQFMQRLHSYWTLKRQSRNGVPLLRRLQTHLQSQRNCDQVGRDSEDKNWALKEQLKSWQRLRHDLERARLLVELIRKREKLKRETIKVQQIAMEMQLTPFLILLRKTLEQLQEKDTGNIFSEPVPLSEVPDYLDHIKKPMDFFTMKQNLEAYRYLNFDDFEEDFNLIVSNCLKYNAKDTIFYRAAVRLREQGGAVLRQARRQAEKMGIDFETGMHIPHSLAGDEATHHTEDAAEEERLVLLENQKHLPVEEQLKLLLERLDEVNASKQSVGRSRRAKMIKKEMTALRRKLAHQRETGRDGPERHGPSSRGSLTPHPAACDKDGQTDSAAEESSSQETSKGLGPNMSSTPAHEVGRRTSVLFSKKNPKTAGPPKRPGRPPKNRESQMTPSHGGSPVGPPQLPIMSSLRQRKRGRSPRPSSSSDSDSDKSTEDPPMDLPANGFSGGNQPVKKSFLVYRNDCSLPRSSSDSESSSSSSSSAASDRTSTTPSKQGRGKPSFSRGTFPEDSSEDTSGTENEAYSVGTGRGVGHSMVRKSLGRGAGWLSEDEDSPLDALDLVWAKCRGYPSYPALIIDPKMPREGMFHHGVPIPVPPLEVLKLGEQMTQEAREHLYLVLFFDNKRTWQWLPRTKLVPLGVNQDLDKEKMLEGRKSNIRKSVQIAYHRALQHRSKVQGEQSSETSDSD

[1] = biological target: Fibroblast growth factor receptor 2 (Homo sapiens) (UniProt P21802); conditions: Compound concentration 20.0 uM
Fibroblast growth factor receptor 2 (Homo sapiens), sequence (P21802 22-821 limits assumed): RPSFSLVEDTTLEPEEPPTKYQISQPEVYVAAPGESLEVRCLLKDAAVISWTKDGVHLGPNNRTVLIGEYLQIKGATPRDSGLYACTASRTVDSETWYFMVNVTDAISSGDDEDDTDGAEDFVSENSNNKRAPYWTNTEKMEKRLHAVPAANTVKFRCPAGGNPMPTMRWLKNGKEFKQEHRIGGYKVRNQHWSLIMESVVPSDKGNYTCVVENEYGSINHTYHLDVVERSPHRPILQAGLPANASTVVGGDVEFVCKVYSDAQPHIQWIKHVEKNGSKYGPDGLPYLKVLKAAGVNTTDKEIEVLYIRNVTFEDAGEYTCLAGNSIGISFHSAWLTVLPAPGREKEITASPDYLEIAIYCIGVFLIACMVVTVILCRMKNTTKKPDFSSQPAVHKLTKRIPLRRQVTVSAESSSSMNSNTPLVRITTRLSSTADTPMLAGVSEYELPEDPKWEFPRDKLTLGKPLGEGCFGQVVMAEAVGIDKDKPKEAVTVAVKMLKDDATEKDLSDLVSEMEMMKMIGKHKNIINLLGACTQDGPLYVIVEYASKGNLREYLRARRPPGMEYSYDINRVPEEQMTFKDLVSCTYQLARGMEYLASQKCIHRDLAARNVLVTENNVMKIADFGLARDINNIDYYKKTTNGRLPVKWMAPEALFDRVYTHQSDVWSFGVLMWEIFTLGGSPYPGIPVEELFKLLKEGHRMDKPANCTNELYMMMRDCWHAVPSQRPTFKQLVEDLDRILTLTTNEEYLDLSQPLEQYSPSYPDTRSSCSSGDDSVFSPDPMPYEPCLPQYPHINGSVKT
Description: Thermal Shift Assay. Domain: start/stop: T457-E768

Structure (SMILES)	ΔTm (Peregrin (Homo sapiens))	ΔTm [1]	ΔTm (Peregrin (Homo sapiens); Protein concentration 2.0 uM) [°C]
NC(=O)C1CN(CCCCC(c2ccc(F)cc2)c2ccc(F)cc2)CCN1CC(=O)Nc1c(Cl)cc(N)cc1Cl (centres undefined)	-3.73 °C	-9.38 °C	
CC(C)Cc1nn(C)c(=O)c2c(SCCCO)n(Cc3cccc4ccccc34)cc12	-2.75 °C and -3.63 °C	0.03 °C and -0.58 °C	
Cn1ncc(-c2nn(C)c3ncnc(N4CCC4)c23)c1-c1ccc(C(F)(F)F)cc1	3.7 °C	0.04 °C	
CN(CC[C@@H](Oc1ccc(-c2ccccc2)cc1)c1ccc(F)cc1)CC(=O)O	-0.36 °C	0.18 °C	
COc1ccc([C@@H]2CNC(=O)C2)cc1OC1CCCC1	0.39 °C	-0.37 °C	
Nc1ccccc1NC(=O)c1ccc(CNC(=O)OCc2cccnc2)cc1	-0.57 °C	0.41 °C	
Cc1cccc(Nc2ccncc2S(=O)(=O)NC(=O)NC(C)C)c1	0.33 °C	-0.51 °C	
CN(CCC(Oc1ccc(-c2ccccc2)cc1)c1ccc(F)cc1)CC(=O)O (centres undefined)	1.93 °C	0.44 °C	
CCn1c(=S)[nH]c2cc3c(NCc4ccccc4N4CCC(CO)CC4)ncnc3cc21	1.64 °C	-0.06 °C	
CC(=O)O[C@]1(C(C)=O)CC[C@H]2[C@@H]3CCC4=CC(=O)CCC4=C3[C@@H](c3ccc(N(C)C)cc3)C[C@@]21C	-2.65 °C	-0.06 °C	
CN1[C@@H]2CC[C@H]1C[C@@H](OC(c1ccc(F)cc1)c1ccc(F)cc1)C2	-0.08 °C	-0.72 °C	
CC(=O)N[C@@H](CC(=O)O)C(=O)N[C@@H](CC(N)=O)C(=O)N[C@@H](CC(C)C)C(=O)N[C@H](C=O)CC(=O)O	1.79 °C	0.44 °C	
COc1cc(Oc2ccnc3cc(OC)c(OC)cc23)ccc1NC(=O)NC(C)c1nccs1 (centres undefined)	-1.23 °C	-3.29 °C	
Cc1ncc(Cl)cc1NCc1ccc(C(=O)N[C@@H](CC2CCCC2)C(=O)NC2CC2)s1	-0.65 °C	1.09 °C	
O=C1c2ccccc2C(=O)c2oc(-c3cccnc3)nc21	2.45 °C	-0.95 °C	
O=C(N1CCCCC1c1ccccc1)n1cc(-c2ccc(-c3cccc(CO)c3)cc2)nn1 (centres undefined)	-1.91 °C	-4.93 °C	
O=C(O)[C@@H]1CCCN(C(=O)n2cnc(-c3ccc(-c4cnc(N5CCOCC5)nc4)cc3)n2)[C@H]1c1ccccc1	-0.92 °C	0.15 °C	
Cc1ccc(C)c(-n2sc3cc(F)ccc3c2=O)c1	-11.8 °C	-0.26 °C	
CCCOc1ccc(CCc2nc3cc(-c4c(C)noc4C)ccc3n2CCN2CCOCC2)cc1	-1.09 °C	-0.48 °C	
O=C(Nc1c(Cl)cncc1Cl)c1ccc(OC(F)F)c(OCC2CC2)c1	0.52 °C	0.95 °C	
CC(=O)OCCN1C(=O)c2c(C)nc3ccc(S(=O)(=O)N4CCOCC4)cc3c2C1=O	-0.89 °C	0.68 °C	

Structure (SMILES)	ΔTm (Peregrin (Homo sapiens))	ΔTm [1]	ΔTm (Peregrin (Homo sapiens); Protein concentration 2.0 uM) [°C]
Cc1sc(C(=O)c2cncnc2N[C@@H]2C[C@H](COS(N)(=O)=O)[C@@H](O)C2)cc1[C@@H]1NCCc2ccc(Cl)cc21	-1.17 °C	0.33 °C	
O=C(NC[C@H](O)CN1CCc2ccccc2C1)c1cc(NC2COC2)ncn1	-1.25 °C	0.37 °C	
C[C@H](NC(=O)[C@H](Cc1ccccc1)NC(=O)OCc1ccccc1)C(=O)CF	-1.31 °C	0.14 °C	
O=C(c1cc(Cc2n[nH]c(=O)c3ccccc23)ccc1F)N1CCN(C(=O)C2CC2)CC1	0.96 °C	-0.16 °C	
N[C@@H](CC(=O)N1CCN(C(c2ccc(F)cc2)c2ccc(F)cc2)CC1)C(=O)N1Cc2ccccc2C1	-1.34 °C	0 °C	
CC(C)C(=O)c1c(C(C)C)nn2ccccc12	0.32 °C	-0.49 °C	
O=C1c2ccccc2C(=O)c2oc(-c3ccc(F)cc3)nc21	-0.98 °C	0.19 °C	
N#Cc1ccc(N2N=C3c4ccc(C(=O)O)cc4CC[C@@H]3[C@@H]2C2CCCC2)cc1Cl	-8.37 °C	-1.06 °C	
NS(=O)(=O)c1cc(-c2nnn[nH]2)c(NCc2cccs2)cc1Cl		0.38 °C	2
Cc1nn2c(nc(O)c3cccnc32)c1C#N	0.03 °C	-0.24 °C	
Nc1cccc(CNC(=O)c2ccc(Oc3ccc(OCc4cccc(F)c4)cc3)nc2)c1	2.81 °C	-0.6 °C	
COC(=O)[C@@H]1CC2=CC(=O)CC[C@]2(C)[C@@]23O[C@@H]2C[C@@]2(C)[C@@H](CC[C@@]24CCC(=O)O4)[C@H]13	-1.07 °C	1.06 °C	
CC(C)N(CCCNC(=O)Nc1ccc(C(C)(C)C)cc1)C[C@H]1O[C@@H](n2ccc3c(N)ncnc32)[C@H](O)[C@@H]1O	-2.69 °C	0.6 °C	
O=C(O)CCNc1cc(N2CCc3ccccc3CC2)nc(-c2ccccn2)n1	0.6 °C	0.4 °C	
COC1CCN(C(=O)c2cc(Cc3n[nH]c(=O)c4ccccc34)ccc2F)CC1	1.51 °C	-0.21 °C	
CC(=O)Nc1ccc(C(=O)Nc2ccc(F)cc2N)cc1	1.03 °C	0.76 °C	
CC/C(=C(/CC)c1ccc(O)cc1)c1ccc(O)cc1	-8.49 °C	-8.29 °C	
CCc1ccccc1NC(=O)CSC(=O)NNC(=O)[C@H](Cc1c[nH]c2ccccc12)NC(=O)OC(C)(C)C	-6.08 °C	-9.39 °C	
CCCC(NC(=O)C(CC(C)C)NC(=O)OCc1ccccc1)C(=O)C(=O)NCc1ccccn1 (racemic)	-1.7 °C	0.15 °C	
O=C(C[C@@H](C(F)F)n1ccc(F)n1)N1CCC(O)(Cn2cnc3c(cnn3-c3ccc(F)cc3)c2=O)CC1	0.9 °C	0.2 °C	
COc1c(CN)cc(CN)cc1OCCCN1Cc2ccccc2C1	0.41 °C	0.36 °C	

Structure (SMILES)	ΔTm (Peregrin (Homo sapiens))	ΔTm [1]	ΔTm (Peregrin (Homo sapiens); Protein concentration 2.0 uM) [°C]
O=C(O)C1=CCCN(CCON=C(c2ccccc2)c2ccccc2)C1	0.57 °C	0.48 °C	
CC(=O)N1CCC(Nc2cc(C(=O)NC[C@H](O)CN3CCc4ccccc4C3)ncn2)CC1	-1.13 °C	0.28 °C	
CCCCCCNC(=O)n1cc(F)c(=O)[nH]c1=O	0.95 °C	0.03 °C	
CCOc1ccc2nc(-c3cccc(OCC(=O)NC(C)C)c3)nc(Nc3ccc(-c4cn[nH]c4)cc3)c2c1	2.82 °C	-0.59 °C	
CCCn1/c(=N/C(=O)c2cccc(C(N)=O)c2)[nH]c2ccccc21	-1.26 °C	0.22 °C	
CC(C)(C)OC(=O)Nc1ccc(CNc2nccc(Nc3cc(C(=O)OC(C)(C)C)[nH]n3)n2)cc1	-1.32 °C	1.22 °C	
CC(C)N(C[C@H]1O[C@@H](n2cnc3c(N)ncnc32)[C@H](O)[C@@H]1O)[C@H]1C[C@@H](CCc2nc3cc(C(C)(C)C)ccc3[nH]2)C1	-1.35 °C	0.82 °C	
CC(=O)N1CCN([C@H]2CCC[C@@H](NC(=O)c3cc4c(F)ccc(C)c4[nH]3)C2)CC1	-1.02 °C	-2.8 °C	
Cc1c(CN2CCC(Nc3ncnc4sc(CC(F)(F)F)cc34)CC2)ccc2c1cc(C#N)n2Cc1cn[nH]c1	2.02 °C	-1.27 °C	
Nc1cc(F)ccc1NC(=O)c1ccc(CNC(=O)/C=C/c2cccnc2)cc1	-0.89 °C	0.58 °C	
O=C(O)Cc1ccc(Cc2cc(-c3cccc(Cl)c3)nc(C(F)(F)F)c2)cc1	-0.4 °C	-0.76 °C	
Cc1[nH]nc(C(F)(F)F)c1Cc1sc2c(c1C(=O)N1C[C@](C)(O)CO1)c(=O)n(C)c(=O)n2C(C)C	0.94 °C	1.06 °C	
O=C(N1CCCC[C@H]1Cc1ccccc1)n1cc(-c2ccc(-c3ccccc3)cc2)nn1	1 °C	0.8 °C	
O=C(NCCCCc1ccccc1)n1c(=O)oc2cc(-c3ccc(F)cc3)ccc21	2.4 °C	-0.32 °C	
CN(C)CCCCC(=O)Nc1ccc(NC(=S)NC(=O)c2ccc(C(C)(C)C)cc2)cc1	-0.35 °C	-0.03 °C	
COc1ccc2nc3[nH]nc(C)c3c(NCCOCCO)c2c1	-1.14 °C	0.8 °C	
O=C(CCCCCCC(=O)Nc1ccc([C@H]2O[C@@H](CSc3nc(-c4ccccc4)c(-c4ccccc4)o3)C[C@@H](c3ccc(CO)cc3)O2)cc1)NO	0 °C	-10.7 °C	
Nc1ncnc2c1c(I)cn2[C@@H]1O[C@H](CO)[C@@H](O)[C@H]1O	2.98 °C	2.17 °C	
Cn1c(=O)cc(N2CCC[C@@H](N)C2)n(Cc2ccccc2C#N)c1=O	2.35 °C	0.81 °C	
COCCOCCn1nc2c(c1C)-c1c(Cl)ccc3c1c(C)c(C(=O)O)n3CCCOc1cc(cc3c(F)c(Cl)ccc13)CCc1cc(nn1C)CSC2	0 °C	-5.22 °C	
